By Ki is commonly meant a measure of affinity in units of concentration, obtained from inhibition or displacement. High values mean weaker binding, low ones tighter binding. One may read the ED50 as the dose that gives a 50% effect, or the effect in half of the subjects. A low value points to greater potency.

Test [1] concerns the target Sigma non-opioid intracellular receptor 1 (Homo sapiens, UniProt Q99720). Put plainly: Binding affinity towards sigma receptor using [3H](+)-SKF-10047 as radioligand.
Test [2] in a line: In vivo potency was determined in anti-mescaline scratch assay(peroral administration). The format is functional, organism-based.
Test [3] concerns the target Serotonin 2 (5-HT2) receptor (Homo sapiens, UniProt P41595+P28223+P28335). Briefly: Binding affinity towards 5-HT2 receptor using [3H]ketanserin as radioligand. The test is classed as protein assay.
Test [4] deals with D(2) dopamine receptor (Homo sapiens, UniProt P14416). Put plainly: Binding affinity towards Dopamine receptor D2 using [3H]spiperone as radioligand.
Chain of D(2) dopamine receptor (P14416 whole entry): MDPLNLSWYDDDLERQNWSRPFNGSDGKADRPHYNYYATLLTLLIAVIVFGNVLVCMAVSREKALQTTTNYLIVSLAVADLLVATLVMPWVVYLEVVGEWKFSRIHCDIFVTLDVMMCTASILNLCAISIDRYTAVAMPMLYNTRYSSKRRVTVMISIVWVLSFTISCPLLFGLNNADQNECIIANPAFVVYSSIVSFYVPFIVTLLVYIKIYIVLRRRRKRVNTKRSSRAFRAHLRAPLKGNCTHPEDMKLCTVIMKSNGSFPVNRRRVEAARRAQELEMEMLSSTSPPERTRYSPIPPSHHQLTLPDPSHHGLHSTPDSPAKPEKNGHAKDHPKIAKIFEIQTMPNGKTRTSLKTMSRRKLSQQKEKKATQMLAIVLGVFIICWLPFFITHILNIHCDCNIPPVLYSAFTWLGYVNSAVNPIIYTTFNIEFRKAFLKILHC

A value given as a limit tells only on which side of the number the result lay.

Chain of Sigma non-opioid intracellular receptor 1 (Q99720 whole entry): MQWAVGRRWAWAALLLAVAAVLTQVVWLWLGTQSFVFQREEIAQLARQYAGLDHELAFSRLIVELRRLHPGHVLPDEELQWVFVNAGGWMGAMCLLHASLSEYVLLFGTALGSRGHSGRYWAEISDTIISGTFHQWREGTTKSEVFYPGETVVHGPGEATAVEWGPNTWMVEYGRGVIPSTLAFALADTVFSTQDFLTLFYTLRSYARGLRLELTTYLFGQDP

For `c1ccc(CCCOCC2CCN(Cc3ccccc3)CC2)cc1`, the Ki in test [1] amounted to 27 nM; in test [3], 180 nM; in test [4], 554 nM. The molecule further yielded an ED50 in test [2] of over 30 mg/kg.
As to `C(=C\c1ccccc1)/COCC1CCN(CCc2ccccc2)CC1`, the Ki came out at 5 nM in test [1], 250 nM in test [3] and 241 nM in test [4]. For the same molecule, the ED50 in test [2] was over 5 mg/kg.
In the case of `C(=C\c1ccccc1)/COCC1CCN(CCCc2ccccc2)CC1`, the Ki in test [1] is 18 nM; in test [3] it was 283 nM; in test [4], 948 nM. The same molecule returned an ED50 in test [2] of 9 mg/kg.
As to `C(=C\c1ccccc1)/COCC1CCN(CC2CC2)CC1`, the Ki in test [1] was 5 nM; in test [3], 1847 nM; in test [4], over 10000 nM. Further, in test [2], the ED50 was over 30 mg/kg.
In the same order, the values of `C(COCC1CCN(Cc2ccccc2)CC1)=C(c1ccccc1)c1ccccc1` are 22 nM, 29 nM, 620 nM and over 30 mg/kg.
Take `Fc1ccc(/C=C/COCC2CCN(Cc3ccccc3)CC2)cc1`: the inhibitory constant (Ki) in test [1] came to 12 nM; in test [3], 31 nM; in test [4], 2180 nM. The molecule further showed an ED50 in test [2] of 8 mg/kg.
In the same order, the values of `C(#Cc1ccccc1)COCCC1CCN(CC2CC2)CC1` are 1 nM, 947 nM, over 10000 nM and over 10 mg/kg.
For the molecule `C(#Cc1ccccc1)COC1CCN(CCc2ccccc2)CC1`, the Ki in test [1] is 4 nM; in test [3], 72 nM; in test [4] it was 1360 nM. Moreover, in test [2], the ED50 was over 10 mg/kg.
For the molecule `C(=C/c1ccccc1)/COCC1CCN(Cc2ccccc2)CC1`, the Ki is 90 nM in test [1], over 10000 nM in test [3] and over 10000 nM in test [4].
Regarding `C(#Cc1ccccc1)COCCC1CCN(CCc2ccccc2)CC1`, the inhibitory constant (Ki) stood at 7 nM in test [1], 21 nM in test [3] and 131 nM in test [4]. The ED50 in test [2] stood at 4.1 mg/kg.
In the same order, the values of `C/C=C/CN1CCC(COC/C=C/c2ccccc2)CC1` are 8 nM, 650 nM, over 10000 nM and over 30 mg/kg.
With `Fc1ccc(C#CCOCCC2CCN(CCc3ccccc3)CC2)cc1`, the Ki in test [1] stood at 2 nM; in test [3], 81 nM; in test [4] it was 1060 nM. Moreover, in test [2], the ED50 was over 10 mg/kg.
On to `C(/C=C/c1ccccc1)=C\OCC1CCN(Cc2ccccc2)CC1`, for which the Ki in test [1] was 212 nM; in test [3], 547 nM; in test [4], over 10000 nM.
As for `FC(F)(F)c1ccc(/C=C/COCC2CCN(Cc3ccccc3)CC2)cc1`, the Ki turned out to be 28 nM in test [1], 324 nM in test [3] and 4320 nM in test [4]. Also, in test [2], the ED50 was over 10 mg/kg.
In the case of `C(#Cc1ccccc1)COCC1CCN(Cc2ccccc2)CC1`, the Ki in test [1] is 4 nM; in test [3], 254 nM; in test [4], over 10000 nM. In test [2], this molecule showed an ED50 of over 30 mg/kg.
In the same order, the values of `Fc1ccc(CCN2CCC(CCOCC#Cc3ccccc3)CC2)cc1` are 18 nM, 85 nM, 1840 nM and 3.6 mg/kg.
In the same order, the values of `C(=C\c1ccccc1)/COCC1CCN(Cc2cccc3ccccc23)CC1` are 8 nM, 284 nM, over 10000 nM and over 10 mg/kg.
For `C(=C\c1ccccc1)/COCC1CCN(Cc2ccccc2)CC1`, the Ki in test [1] was 7 nM; in test [3], 44 nM; in test [4], over 10000 nM. The molecule also showed an ED50 in test [2] of 6 mg/kg.

The record behind these values is ChEMBL document CHEMBL1127981, “Novel ether derivatives of alkyl piperidines as potential sigma / 5HT2 antipsychotic agents” (Bioorg Med Chem Lett, 1994).
